Measurements reported in patent US10189859B2, “Derivatives of 6-(2,3-dichlorophenyl)-1,2,4-triazin-5-amine” (Nektar Therapeutics, priority 2013, dated 2019).
Structures can show the parent of a compound that is named as a salt. Where two headings read alike, the source gives them in different places.

Experiments:
[1] = Pharmacokinetics after intravenous or oral dosing, plasma LC/MS/MS; assay type: in vivo; details: fasted male Sprague Dawley rats
Procedure: Fasted, male Sprague Dawley rats were dosed intravenously or orally. Blood samples were collected at pre-determined time points and plasma was separated. Test article concentrations were determined in plasma by a LC/MS/MS method. Non compartmental analysis was performed to estimate the area under the plasma concentration vs. time curve (AUC). Clearance parameters (CL), bioavailabilities (F) and half-lives were calculated.

[2] = biological target: Nav1.7 sodium channels (human SCN9A gene) (Homo sapiens (Human), UniProt Q15858); test: Automated patch clamp (IonWorks Barracuda) of Nav1.7 stably expressed in CHO cells; assay type: cell-based
Procedure: The potencies of the compounds provided herein to block specific Na+ channels was measured using automated patch clamp electrophysiologically of Nav1.7 sodium channels (human SCN9A gene) stably expressed in CHO cells using the IonWorks™ Barracuda system. Currents were measured from the whole cell patch configuration. From a holding potential of −90 mV, membranes were subjected to a 200 ms pre-pulse to −120 mV, then pulsed to 0 mV to measure blockade of the tonic (resting) state. Inactivated state block was elicited by repolarization to −100 mV (20 ms pulse duration), followed by depolarization to 0 mV (20 ms pulse duration). Peak inward Na+ currents were measured in the presence of vehicle or various concentrations of the test compound to determine the percent block of current. Concentration-response relationships were used to calculate IC50 values for the illustrative compounds.

[3] = inactivated state block, CHO cells, read-out: Inactivated state IC50
[4] = tonic (resting) state block, CHO cells, read-out: Tonic state IC50
[5] = read-out: Inactivated state IC50

Chain of Nav1.7 sodium channels (human SCN9A gene) (Q15858 whole entry): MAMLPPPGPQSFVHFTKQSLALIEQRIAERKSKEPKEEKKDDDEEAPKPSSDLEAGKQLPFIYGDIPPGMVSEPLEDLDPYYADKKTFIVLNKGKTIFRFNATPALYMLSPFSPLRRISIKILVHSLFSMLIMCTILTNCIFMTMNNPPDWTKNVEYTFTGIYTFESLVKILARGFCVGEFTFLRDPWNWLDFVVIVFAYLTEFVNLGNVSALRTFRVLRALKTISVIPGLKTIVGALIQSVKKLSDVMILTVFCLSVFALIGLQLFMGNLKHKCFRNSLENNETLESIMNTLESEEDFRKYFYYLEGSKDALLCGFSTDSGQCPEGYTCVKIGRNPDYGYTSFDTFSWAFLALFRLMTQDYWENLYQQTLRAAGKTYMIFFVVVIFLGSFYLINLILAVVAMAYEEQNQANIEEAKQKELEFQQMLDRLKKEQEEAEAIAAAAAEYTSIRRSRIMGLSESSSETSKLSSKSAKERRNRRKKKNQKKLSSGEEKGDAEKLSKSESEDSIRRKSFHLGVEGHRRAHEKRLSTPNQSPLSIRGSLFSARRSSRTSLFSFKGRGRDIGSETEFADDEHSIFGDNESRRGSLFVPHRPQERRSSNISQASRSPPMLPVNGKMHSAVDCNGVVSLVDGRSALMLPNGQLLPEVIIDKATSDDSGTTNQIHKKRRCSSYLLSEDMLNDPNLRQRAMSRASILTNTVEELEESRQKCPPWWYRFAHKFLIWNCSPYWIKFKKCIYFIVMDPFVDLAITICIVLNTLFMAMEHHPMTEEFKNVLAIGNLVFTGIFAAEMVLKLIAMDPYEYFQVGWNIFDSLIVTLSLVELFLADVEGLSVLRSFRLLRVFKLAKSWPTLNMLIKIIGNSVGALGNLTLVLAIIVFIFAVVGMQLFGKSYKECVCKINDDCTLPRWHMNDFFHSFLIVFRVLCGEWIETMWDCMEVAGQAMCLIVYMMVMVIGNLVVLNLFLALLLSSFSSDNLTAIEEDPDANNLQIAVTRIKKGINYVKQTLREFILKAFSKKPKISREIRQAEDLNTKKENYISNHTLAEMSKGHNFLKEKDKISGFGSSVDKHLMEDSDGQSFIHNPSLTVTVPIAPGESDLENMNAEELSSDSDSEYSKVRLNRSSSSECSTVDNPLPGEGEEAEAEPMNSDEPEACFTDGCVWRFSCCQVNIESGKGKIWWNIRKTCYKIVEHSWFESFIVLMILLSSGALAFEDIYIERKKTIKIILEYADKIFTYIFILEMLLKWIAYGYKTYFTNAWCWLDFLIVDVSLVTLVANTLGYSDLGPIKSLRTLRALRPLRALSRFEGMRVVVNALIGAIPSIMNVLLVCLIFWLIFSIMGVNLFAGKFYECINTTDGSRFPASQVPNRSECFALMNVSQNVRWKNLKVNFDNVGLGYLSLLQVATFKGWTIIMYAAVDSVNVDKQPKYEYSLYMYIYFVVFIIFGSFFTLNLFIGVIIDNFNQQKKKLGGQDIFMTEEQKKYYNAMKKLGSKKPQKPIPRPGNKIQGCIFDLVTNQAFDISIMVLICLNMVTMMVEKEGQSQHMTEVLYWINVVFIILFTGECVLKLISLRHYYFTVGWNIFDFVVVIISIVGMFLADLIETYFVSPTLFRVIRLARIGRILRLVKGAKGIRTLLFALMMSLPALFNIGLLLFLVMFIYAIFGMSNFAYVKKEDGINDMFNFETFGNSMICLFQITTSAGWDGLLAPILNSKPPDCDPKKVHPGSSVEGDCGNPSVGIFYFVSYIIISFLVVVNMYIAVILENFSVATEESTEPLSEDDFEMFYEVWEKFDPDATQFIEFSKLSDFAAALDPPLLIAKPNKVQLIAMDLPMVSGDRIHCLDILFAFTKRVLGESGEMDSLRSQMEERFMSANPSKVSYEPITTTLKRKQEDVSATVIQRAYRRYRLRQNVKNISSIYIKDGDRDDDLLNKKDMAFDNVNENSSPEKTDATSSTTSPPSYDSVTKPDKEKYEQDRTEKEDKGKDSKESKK

Structure (SMILES) | exposure after oral dosing (qualitative ranking) [1] | IC50 [2, 3] | IC50 [2, 4] | other results
Nc1nc(N2CCN(CC(O)COC(F)(F)F)CC2)nnc1-c1cccc(Cl)c1Cl (stereo not drawn) [Compound 27, 1-(4-(5-Amino-6-(2,3-dichlorophenyl)-1,2,4-triazin-3-yl)piperazin-1-yl)-3-(trifluoromethoxy)propan-2-ol] | best exposure after oral dosing | – | – | pharmacokinetics (qualitative ranking of the compounds tested) [1]: most favorable pharmacokinetics
CC(CO)(CO)Nc1nnc(-c2cccc(Cl)c2Cl)c(N)n1 [Compound 47, 2-((5-Amino-6-(2,3-dichlorophenyl)-1,2,4-triazin-3-yl)amino)-2-methylpropane-1,3-diol] | best exposure after oral dosing | – | – | –
COCCOCC(C)(CO)Nc1nnc(-c2cccc(Cl)c2Cl)c(N)n1 (stereo not drawn) [Compound 49, 2-((5-Amino-6-(2,3-dichlorophenyl)-1,2,4-triazin-3-yl)amino)-3-(2-methoxyethoxy)-2-methylpropan-1-ol] | best exposure after oral dosing | – | – | –
Nc1nc(NCCOCCOCCOC(F)F)nnc1-c1cccc(Cl)c1Cl [Compound 57, 6-(2,3-Dichlorophenyl)-N^3-(2-(2-(2-(difluoromethoxy)ethoxy)ethoxy)ethyl)-1,2,4-triazine-3,5-diamine] | best exposure after oral dosing | – | – | –
COC(=O)[C@@H]1C[C@@H](O)CN1c1nnc(-c2cccc(Cl)c2Cl)c(N)n1 [Compound 65, (2S,4R)-Methyl 1-(5-amino-6-(2,3-dichlorophenyl)-1,2,4-triazin-3-yl)-4-hydroxypyrrolidine-2-carboxylate] | best exposure after oral dosing | – | – | pharmacokinetics (qualitative ranking of the compounds tested) [1]: most favorable pharmacokinetics
COC[C@@H](O)COC1CN(c2nnc(-c3cccc(Cl)c3Cl)c(N)n2)C1 [Compound 75, (R)-1-((1-(5-Amino-6-(2,3-dichlorophenyl)-1,2,4-triazin-3-yl)azetidin-3-yl)oxy)-3-methoxypropan-2-ol] | best exposure after oral dosing | – | – | pharmacokinetics (qualitative ranking of the compounds tested) [1]: most favorable pharmacokinetics
Nc1nc(N2CCN(C[C@@H](O)COCC(F)(F)F)CC2)nnc1-c1cccc(Cl)c1Cl [Compound 94, (R)-1-(4-(5-amino-6-(2,3-dichlorophenyl)-1,2,4-triazin-3-yl)-piperazin-1-yl)-3-(2,2,2-trifluoroethoxy)-propan-2-ol] | best exposure after oral dosing | – | – | pharmacokinetics (qualitative ranking of the compounds tested) [1]: most favorable pharmacokinetics
Nc1nc(N2CC(OCC(F)(F)F)C2)nnc1-c1cccc(Cl)c1Cl [Compound 99, 6-(2,3-dichlorophenyl)-3-(3-(2,2,2-trifluoroethoxy)azetidin-1-yl)-1,2,4-triazin-5-amine.HCl salt] | best exposure after oral dosing | – | – | –
C[C@@H]1CN(c2nnc(-c3cccc(Cl)c3Cl)c(N)n2)C[C@H](C)N1 [Compound 118, 3-N-(3′,5′-dimethylpiperazin-1-yl) lamotrigine] | best exposure after oral dosing | – | – | –
C[C@@H]1CN(c2nnc(-c3cc(F)cc(Cl)c3Cl)c(N)n2)C[C@H](C)N1 [Compound 119, 3-N-(3′,5′-dimethylpiperazin-1-yl) 5′-fluoro lamotrigine] | best exposure after oral dosing | – | – | –
Nc1nc(N2CCN(C3CCOCC3)CC2)nnc1-c1cccc(Cl)c1Cl [Compound 120, 3-N-(4-(tetrahydro-2H-pyran-4-yl)piperazin-1-yl) lamotrigine di HCl] | best exposure after oral dosing | – | – | pharmacokinetics (qualitative ranking of the compounds tested) [1]: most favorable pharmacokinetics
Nc1nc(N2CC(N)C2)nnc1-c1cccc(Cl)c1Cl [Compound 126, 5-amino-3-N-(3-aminoazetidinyl) lamotrigine diHCl salt] | best exposure after oral dosing | – | – | –
Nc1nc(N2CC(O)C2)nnc1-c1cccc(Cl)c1Cl [Compound 129, 3-N-(3-hydroxyazetin-1-yl) lamotrigine] | best exposure after oral dosing | – | – | pharmacokinetics (qualitative ranking of the compounds tested) [1]: most favorable pharmacokinetics
Nc1nc(N2CC(O)(C(F)(F)F)C2)nnc1-c1cccc(Cl)c1Cl [Compound 165, 3-N-(3-hydroxy-3-trifluoromethyl)azetidinyl lamotrigine] | best exposure after oral dosing | – | – | –
COCCOCCOCC(C)CNc1nnc(-c2cccc(Cl)c2Cl)c(N)n1 (stereo not drawn) [Compound 177, 6-(2,3-dichlorophenyl)-N3-(3-(2-(2-methoxyethoxy)ethoxy)-2-methylpropyl)-1,2,4-triazine-3,5-diamine] | – | < 50 µM | > 200 µM | –
CN(CCO)c1nnc(-c2cccc(Cl)c2Cl)c(N)n1 [Compound 185, 2-((5-amino-6-(2,3-dichlorophenyl)-1,2,4-triazin-3-yl)(methyl)amino)ethanol] | – | – | – | IC50 [2, 5]: 176 µM; IC50 ([2]; read-out: Tonic state IC50): > 200 µM
COCCOCCN(C)CCN(C)c1nnc(-c2cccc(Cl)c2Cl)c(N)n1 [Compound 193, 6-(2,3-dichlorophenyl)-N3-(2-((2-(2-methoxyethoxy)ethyl)(methyl)amino)ethyl)-N3-methyl-1,2,4-triazine-3,5-diamine] | – | < 50 µM | 62.6 µM | –
NC(=O)CNCCOCCNc1nnc(-c2cccc(Cl)c2Cl)c(N)n1 [Compound 194, 2-((2-(2-((5-amino-6-(2,3-dichlorophenyl)-1,2,4-triazin-3-yl)amino)ethoxy)ethyl)amino)acetamide] | – | – | – | IC50 [2, 5]: > 300 µM; IC50 ([2]; read-out: Tonic state IC50): > 200 µM
COC(=O)CNCCOCCNc1nnc(-c2cccc(Cl)c2Cl)c(N)n1 [Compound 199, methyl 2-((2-(2-((5-amino-6-(2,3-dichlorophenyl)-1,2,4-triazin-3-yl)amino)ethoxy)ethyl)amino)acetate] | – | – | – | IC50 [2, 5]: > 300 µM; IC50 ([2]; read-out: Tonic state IC50): > 200 µM

Further lines, with some results ahead:

exposure after oral dosing (qualitative ranking) [1] | IC50 [2, 3] | IC50 [2, 4] | Structure (SMILES) | other results
– | 298 µM | > 200 µM | COCCOCCOCC(COCCOCCOC)OCCNc1nnc(-c2cccc(Cl)c2Cl)c(N)n1 [Compound 180, 6-(2,3-dichlorophenyl)-N3-(10-((2-(2-methoxyethoxy)ethoxy)methyl)-2,5,8,11-tetraoxatridecan-13-yl)-1,2,4-triazine-3,5-diamine] | –
best exposure after oral dosing | – | – | CC(CO)Nc1nnc(-c2cccc(Cl)c2Cl)c(N)n1 (stereo not drawn) [Compound 182, 2-((5-amino-6-(2,3-dichlorophenyl)-1,2,4-triazin-3-yl)amino)propan-1-ol] | –
– | 100 µM | > 200 µM | COCCS(=O)(=O)CCOCCNc1nnc(-c2cccc(Cl)c2Cl)c(N)n1 [Compound 186, 6-(2,3-dichlorophenyl)-N3-(2-(2-((2-methoxyethyl)sulfonyl)ethoxy)ethyl)-1,2,4-triazine-3,5-diamine] | –
– | 160 µM | > 200 µM | C[S+]([O-])CCOCCNc1nnc(-c2cccc(Cl)c2Cl)c(N)n1 (stereo not drawn) [Compound 187, 6-(2,3-dichlorophenyl)-N3-(2-(2-(methylsulfinyl)ethoxy)ethyl)-1,2,4-triazine-3,5-diamine] | –
– | 273 µM | > 200 µM | COCCOCC(=O)N(C)CCN(C)c1nnc(-c2cccc(Cl)c2Cl)c(N)n1 [Compound 190, N-(2-((5-amino-6-(2,3-dichlorophenyl)-1,2,4-triazin-3-yl)(methyl)amino)ethyl)-2-(2-methoxyethoxy)-N-methylacetamide] | –
– | 244 µM | > 200 µM | CN(CCOCCNc1cnc(-c2cccc(Cl)c2Cl)c(N)n1)CC(N)=O [Compound 191, 2-((2-(2-((6-amino-5-(2,3-dichlorophenyl)pyrazin-2-yl)amino)ethoxy)ethyl)-(methyl)amino)acetamide] | –
– | > 300 µM | > 200 µM | CN(CCN(C)c1nnc(-c2cccc(Cl)c2Cl)c(N)n1)C(=O)COCC(N)=O [Compound 192, 2-(2-amino-2-oxoethoxy)-N-(2-((5-amino-6-(2,3-dichlorophenyl)-1,2,4-triazin-3-yl)(methyl)amino)ethyl)-N-methylacetamide] | –
– | > 300 µM | > 200 µM | COCCOCC(=O)NCC(O)CNc1nnc(-c2cccc(Cl)c2Cl)c(N)n1 (stereo not drawn) [Compound 196, N-(3-((5-amino-6-(2,3-dichlorophenyl)-1,2,4-triazin-3-yl)amino)-2-hydroxypropyl)-2-(2-methoxyethoxy)acetamide] | –
– | < 50 µM | > 200 µM | COC(=O)COCCOCCNc1nnc(-c2cccc(Cl)c2Cl)c(N)n1 [Compound 197, methyl 2-(2-(2-((5-amino-6-(2,3-dichlorophenyl)-1,2,4-triazin-3-yl)amino)ethoxy)ethoxy)acetate] | –
– | < 50 µM | 87.9 µM | CC(C)(C)OC(=O)COCCN1CCN(c2nnc(-c3cccc(Cl)c3Cl)c(N)n2)CC1 [Compound 203, tert-butyl 2-(2-(4-(5-amino-6-(2,3-dichlorophenyl)-1,2,4-triazin-3-yl)piperazin-1-yl)ethoxy)acetate] | –
– | < 50 µM | > 200 µM | CC(C)OCCOCCOCCNc1nnc(-c2cccc(Cl)c2Cl)c(N)n1 [Compound 209, 6-(2,3-dichlorophenyl)-N3-(2-(2-(2-isopropoxyethoxy)ethoxy)ethyl)-1,2,4-triazine-3,5-diamine] | –
